Source: PubChem BioAssay AID248 (DTP/NCI, 2004)
“And” between values parts separate entries of the source, which are not always exact repeats. Equal entries are not always repeated. Inconclusive results and toxic doses are left out.

System: L1210 leukemia ip in BDF1 mice, survival T/C
Test: NCI In Vivo Anticancer Drug Screen. Data for tumor model L1210 Leukemia (intraperitoneal) in B6D2F1 (BDF1) mice
Conditions: endpoint: mean survival time, higher = longer survival
Outline: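 Tumor was transplanted into mice, which were then dosed with test compound or vehicle alone. Survival was recorded for each group, and the treated figure was expressed relative to the control figure.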

[1] = dose: 100.0 mg/kg/injection, schedule: Q01DX009 (ip), vehicle: saline with Tween-80
[2] = dose: 100.0 mg/kg/injection, schedule: Q04DX003 (ip), vehicle: Klucel (hydroxypropylcellulose) (HPC)
[3] = dose: 200.0 mg/kg/injection, schedule: Q04DX003 (ip), vehicle: Klucel (hydroxypropylcellulose) (HPC)
[4] = dose: 400.0 mg/kg/injection, schedule: Q04DX003 (ip), vehicle: Klucel (hydroxypropylcellulose) (HPC)
[5] = dose: 100.0 mg/kg/injection, schedule: Q04DX003 (ip), vehicle: saline with Tween-80
[6] = dose: 200.0 mg/kg/injection, schedule: Q04DX003 (ip), vehicle: saline with Tween-80
[7] = dose: 400.0 mg/kg/injection, schedule: Q04DX003 (ip), vehicle: saline with Tween-80
[8] = dose: 100.0 mg/kg/injection, schedule: Q01DX001 (ip), vehicle: Klucel (hydroxypropylcellulose) (HPC)
[9] = dose: 100.0 mg/kg/injection, schedule: Q01DX009 (ip), vehicle: Klucel (hydroxypropylcellulose) (HPC)
[10] = dose: 200.0 mg/kg/injection, schedule: Q01DX001 (ip), vehicle: Klucel (hydroxypropylcellulose) (HPC)
[11] = dose: 200.0 mg/kg/injection, schedule: Q01DX009 (ip), vehicle: Klucel (hydroxypropylcellulose) (HPC)
[12] = dose: 400.0 mg/kg/injection, schedule: Q01DX009 (ip), vehicle: Klucel (hydroxypropylcellulose) (HPC)
[13] = dose: 100.0 mg/kg/injection, schedule: Q04DX003 (ip), vehicle: saline
[14] = dose: 200.0 mg/kg/injection, schedule: Q04DX003 (ip), vehicle: saline
[15] = dose: 100.0 mg/kg/injection, schedule: Q01DX001 (ip), vehicle: saline
[16] = dose: 200.0 mg/kg/injection, schedule: Q01DX001 (ip), vehicle: saline
[17] = dose: 400.0 mg/kg/injection, schedule: Q01DX001 (ip), vehicle: saline

`O=C(O)CC(CC(=O)O)n1cccc1` was tested, and the T/C (dose: 75.0 mg/kg/injection, schedule: Q01DX001 (ip), vehicle: acetone) was 96 % of control, the T/C (dose: 150.0 mg/kg/injection, schedule: Q01DX001 (ip), vehicle: acetone) was 91 % of control and the T/C (dose: 300.0 mg/kg/injection, schedule: Q01DX001 (ip), vehicle: acetone) was 94 % of control.
For `CC(C)c1ccccc1OS(=O)(=O)c1ccc([N+](=O)[O-])cc1`, the T/C [1] was 103 % of control, the T/C [2] was 103 % of control and the T/C (dose: 200.0 mg/kg/injection, schedule: Q01DX009 (ip), vehicle: saline with Tween-80) was 92 % of control. For the same compound, the T/C [3] was 105 % of control, the T/C (dose: 400.0 mg/kg/injection, schedule: Q01DX009 (ip), vehicle: saline with Tween-80) was 90 % of control and the T/C [4] was 92 % of control.
In the case of `COC1=CC(=O)C(C2CC(=O)c3c(O)cc(OC4OC(COC5OC(C)C(O)C(O)C5O)C(O)C(O)C4O)cc3O2)=CC1=O` (centres undefined), the T/C (dose: 100.0 mg/kg/injection, schedule: Q01DX009 (ip), vehicle: saline) is reported as 95 % of control, the T/C [5] is reported as 103 % of control and the T/C (dose: 200.0 mg/kg/injection, schedule: Q01DX009 (ip), vehicle: saline) is reported as 97 % of control. For the same compound, the T/C [6] was 108 % of control, the T/C (dose: 400.0 mg/kg/injection, schedule: Q01DX009 (ip), vehicle: saline) was 88 % of control and the T/C [7] was 101 % of control.
With `CNC(=O)c1ccc(NC(=O)Nc2cccc(C3=NCCN3)c2)cc1NC(=O)Nc1cccc(C2=NCCN2)c1` the T/C (dose: 4.5 mg/kg/injection, schedule: Q01DX Z (ip), vehicle: carboxymethylcellulose (CMC)) was 97 % of control, the T/C (dose: 9.0 mg/kg/injection, schedule: Q01DX Z (ip), vehicle: carboxymethylcellulose (CMC)) was 113 % of control and the T/C (dose: 36.0 mg/kg/injection, schedule: Q01DX Z (ip), vehicle: carboxymethylcellulose (CMC)) was 160 % of control.
`O=C(O)c1ccc(NCc2cccc([N+](=O)[O-])c2)cc1` was tested, and the T/C [8] was 100 % of control, the T/C [9] was 96 % of control and the T/C (dose: 100.0 mg/kg/injection, schedule: Q04DX002 (ip), vehicle: Klucel (hydroxypropylcellulose) (HPC)) was 100 % of control and 105 % of control. The T/C [2] was 99 % of control, the T/C [10] was 104 % of control and the T/C [11] was 106 % of control and 86 % of control. The T/C (dose: 200.0 mg/kg/injection, schedule: Q04DX002 (ip), vehicle: Klucel (hydroxypropylcellulose) (HPC)) was 101 % of control and 102 % of control, the T/C [3] was 108 % of control and the T/C (dose: 400.0 mg/kg/injection, schedule: Q01DX001 (ip), vehicle: Klucel (hydroxypropylcellulose) (HPC)) was 100 % of control. The T/C [12] was 96 % of control and 98 % of control, the T/C (dose: 400.0 mg/kg/injection, schedule: Q04DX002 (ip), vehicle: Klucel (hydroxypropylcellulose) (HPC)) was 99 % of control and 103 % of control and the T/C [4] was 98 % of control.
With `CCC(C)N(C)N=Nc1ccc(C(N)=O)cc1` (centres undefined) the T/C (dose: 178.0 mg/kg/injection, schedule: Q01DX001 (ip), vehicle: other) was 104 % of control and the T/C (dose: 267.0 mg/kg/injection, schedule: Q01DX001 (ip), vehicle: other) was 112 % of control.
In the case of `O=C(O)COc1ccccc1OCC(=O)O`, the T/C [9] is reported as 98 % of control, the T/C [2] is reported as 94 % of control and the T/C [11] is reported as 100 % of control. The T/C [3] was 100 % of control and the T/C [4] was 98 % of control.
For `O=C1NC(=O)C(c2ccc(Cl)cc2)(c2ccc(Cl)cc2)N1`, the T/C (dose: 45.0 mg/kg/injection, schedule: Q01DX009 (ip), vehicle: Klucel (hydroxypropylcellulose) (HPC)) was 99 % of control, the T/C (dose: 65.0 mg/kg/injection, schedule: Q01DX009 (ip), vehicle: Klucel (hydroxypropylcellulose) (HPC)) was 95 % of control and the T/C [9] was 100 % of control. For the same compound, the T/C [13] was 96 % of control, the T/C (dose: 150.0 mg/kg/injection, schedule: Q01DX009 (ip), vehicle: Klucel (hydroxypropylcellulose) (HPC)) was 103 % of control and the T/C [11] was 100 % of control. For the same compound, the T/C [14] was 92 % of control, the T/C [12] was 113 % of control and the T/C (dose: 400.0 mg/kg/injection, schedule: Q04DX003 (ip), vehicle: saline) was 97 % of control.
With `COc1ccc(C(=O)OCc2ccccc2CN2CCCC2)cc1` the T/C [8] was 102 % of control and the T/C [10] was 98 % of control.
With `CC[N+](C)(CC)CCOC(=O)C1C2CC3OC(=O)C1C3C2` (centres undefined) the T/C [13] was 108 % of control and the T/C [14] was 112 % of control.
In the case of `Cc1cccc2c(=O)c3ccccc3oc12`, the T/C [15] is reported as 98 % of control and 104 % of control, the T/C [16] is reported as 95 % of control and 101 % of control and the T/C [17] is reported as 93 % of control and 97 % of control.
In the case of `CN(C)C(N1CC1)N1CC1`, the T/C (dose: 10.0 mg/kg/injection, schedule: Q04DX002 (ip), vehicle: saline) is reported as 112 % of control, the T/C (dose: 20.0 mg/kg/injection, schedule: Q04DX002 (ip), vehicle: saline) is reported as 108 % of control and the T/C (dose: 40.0 mg/kg/injection, schedule: Q04DX002 (ip), vehicle: saline) is reported as 97 % of control.
For `Cc1ccc(Nc2nc(N)nc(N)c2C=O)cc1`, the T/C (dose: 50.0 mg/kg/injection, schedule: Q01DX001 (ip), vehicle: alcohol) was 89 % of control, the T/C (dose: 100.0 mg/kg/injection, schedule: Q01DX001 (ip), vehicle: alcohol) was 86 % of control and the T/C (dose: 200.0 mg/kg/injection, schedule: Q01DX001 (ip), vehicle: alcohol) was 102 % of control. For the same compound, the T/C (dose: 400.0 mg/kg/injection, schedule: Q01DX001 (ip), vehicle: alcohol) was 86 % of control.
`CCOC(=O)Cc1cn(C)c2ccccc12` was tested, and the T/C [5] was 93 % of control, the T/C [6] was 91 % of control and the T/C [7] was 96 % of control.
In the case of `CCc1cc2c(cc1/C(C)=N/N=C(\C)c1cc3c(cc1CC)C(C)(C)CCC3(C)C)C(C)(C)CCC2(C)C`, the T/C [9] is reported as 97 % of control, the T/C [11] is reported as 89 % of control and the T/C [12] is reported as 93 % of control.
With `O=C(/C=C(\c1ccccc1)N1CC1)c1ccccc1` the T/C [2] was 106 % of control and the T/C [3] was 110 % of control.
With `O=C(O)c1cc([N+](=O)[O-])ccc1Nc1ccccc1` the T/C [6] was 95 % of control.
`Cc1c(Cl)cccc1NC(=O)Oc1cc(Cl)c(Cl)cc1Cl` was tested, and the T/C (dose: 50.0 mg/kg/injection, schedule: Q01DX009 (ip), vehicle: saline with Tween-80) was 92 % of control, the T/C [1] was 96 % of control and the T/C [5] was 95 % of control. For the same compound, the T/C [6] was 106 % of control.
For `CC(=O)O/N=C(/C)c1ccccc1`, the T/C (dose: 75.0 mg/kg/injection, schedule: Q01DX009 (ip), vehicle: saline sonified) was 102 % of control, the T/C (dose: 100.0 mg/kg/injection, schedule: Q04DX003 (ip), vehicle: saline sonified) was 100 % of control and the T/C (dose: 150.0 mg/kg/injection, schedule: Q01DX009 (ip), vehicle: saline sonified) was 100 % of control. The T/C (dose: 200.0 mg/kg/injection, schedule: Q04DX003 (ip), vehicle: saline sonified) was 97 % of control and the T/C (dose: 400.0 mg/kg/injection, schedule: Q04DX003 (ip), vehicle: saline sonified) was 100 % of control.
For `C#CC1(OC(C)=O)CCCCC1`, the T/C [15] was 102 % of control, the T/C [5] was 105 % of control and the T/C [16] was 95 % of control. For the same compound, the T/C [6] was 98 % of control, the T/C [17] was 100 % of control and the T/C [7] was 93 % of control.
